# Measurements taken from patent US8846758B2, “Methods of decreasing glycosylated hemoglobin in patients with dyslipidemia” (TWi Biotechnology, Inc., priority 2011, dated 2014).
# Key:
# [1] = Same study: body weight and lipid profiles; type: in vivo, human; settings: diacerin 50 mg twice daily, 24 weeks
# Protocol: This was a prospective, randomized, double-blind, and parallel comparison study comparing diacerin 50 mg versus placebo in patients with type 2 diabetes mellitus inadequately controlled by previous antidiabetic therapy. The starting dose of diacerin was 50 mg once daily every morning for 4 weeks and could be adjusted up to 50 mg twice daily (morning and evening) if patients have become accustomed to the medication. Patients were screened for eligibility four weeks (week—4) prior to entry at baseline (week 0). During this 4-week screening period, the participants continued their previous antidiabetic therapy, dietary habits, and other lifestyle habits. In order to be eligible for randomization following the 4-week screening period, patients must not have experienced hypoglycemia and must have had two fasting plasma glucose (FPG) measurements of between 135 to 250 mg/dL. At the end of the screening period, patients who met eligibility requirements were randomly assigned to receive diacerin 50 mg or placebo twice a day for 24 weeks observation. During treatment/observation period, the previous antidiabetic therapy including the class and/or dosage was not changed. […]
# For the efficacy parameters, descriptive statistics were presented by visit. […] The area under the concentration-time curve (AUC) was used for evaluating the parameters measured by oral glucose tolerance test. […]
# [2] = tested on: patients with type 2 diabetes mellitus inadequately controlled by previous antidiabetic therapy; experiment: Randomized, double-blind, placebo-controlled study of diacerin in uncontrolled type 2 diabetes mellitus: HbA1c; type: in vivo, human
# From the text: To evaluate the efficacy and safety of diacerin for the treatment of type 2 diabetes mellitus (DM).
# To compare the efficacy of add-on diacerin with no add-on treatment (placebo) on HbA1c after 24-week double-blind treatment in Type 2 DM patients inadequately controlled by previous antidiabetic therapy.
# Male or female patients (BMI≦35 kg/m^2) with type 2 diabetes mellitus on a stable oral hypoglycemic monotherapy for at least 3 months prior to screening visit. The HbA1c measurements taken at screening visit must be between 7% and 12%. Patients enrolled in the study must be receiving one or more oral antihyperglycemic agents including sulfonylurea, biguanides, alpha-glucosidase inhibitors, thiazolidinediones, and nonsulfonylurea insulin secretagogues.
# This was a prospective, randomized, double-blind, and parallel comparison study comparing diacerin 50 mg versus placebo in patients with type 2 diabetes mellitus inadequately controlled by previous antidiabetic therapy. The starting dose of diacerin was 50 mg once daily every morning for 4 weeks and could be adjusted up to 50 mg twice daily (morning and evening) if patients have become accustomed to the medication. Patients were screened for eligibility four weeks (week—4) prior to entry at baseline (week 0). During this 4-week screening period, the participants continued their previous antidiabetic therapy, dietary habits, and other lifestyle habits. In order to be eligible for randomization following the 4-week screening period, patients must not have experienced hypoglycemia and must have had two fasting plasma glucose (FPG) measurements of between 135 to 250 mg/dL. At the end of the screening period, patients who met eligibility requirements were randomly assigned to receive diacerin 50 mg or placebo twice a day for 24 weeks observation. During treatment/observation period, the previous antidiabetic therapy including the class and/or dosage was not changed. Patients were asked to attend the center on eight occasions (screening, baseline, week 4, 8, 12, 16, 20 and 24) during the trial. The total study duration including the screening period for each patient was 28 weeks. There was a two weeks long follow-up period after completion of the treatment/observation. During this follow-up period, patients were followed for adverse events.
# The difference (diacerin vs. placebo) of HbA1c reduction between the two treatment groups was analyzed by analysis of covariance (ANCOVA) with baseline value as a covariate. The corresponding 95% confidence interval was calculated. Within-group changes were also analyzed, with paired t test used to evaluate differences from baseline in each treatment group.
# For the efficacy parameters, descriptive statistics were presented by visit. Statistical analysis was performed to assess the mean change from baseline. The area under the concentration-time curve (AUC) was used for evaluating the parameters measured by oral glucose tolerance test.
# A dyslipidemia sub-group was assembled, wherein subjects had the following baseline levels: a) plasma cholesterol levels greater than 200 mg/dl, or b) plasma triglyceride levels greater than 150 mg/dl, or c) plasma LDL levels greater than 100 mg/dl. The effects of administering […] to the patients in this dyslipidemia sub-group were analyzed by paired t-test compared with the placebo group.
# Subjects (n=76) were randomized in a 1:1 ratio to receive twice-daily diacerin 50 mg (n=38), or placebo (n=38) for 24 weeks. 26 subjects in the diacerin group finished the whole treatment period. Within these 26 subjects, there were 16 subjects with plasma cholesterol levels greater than 200 mg/dl, or plasma triglyceride levels greater than 150 mg/dl, or plasma LDL levels greater than 100 mg/dl at baseline respectively. Plasma cholesterol, triglyceride and LDL levels in the other 10 subjects were normal in the baseline. Thus, there were 16 subjects in the dyslipidemia subgroup.
smiles,measurement,setting,value
"CC(=O)Oc1cccc2c1C(=O)c1c(OC(C)=O)cc(C(=O)O)cc1C2=O [diacerin, 4,5-bis(acetyloxy)-9,10-dioxo-2-anthracene carboxylic acid]",changes in body weight compared with the placebo group,[1],no significant changes
same,changes in lipid profiles compared with the placebo group,[1],no significant changes
same,"HbA1c mean change from baseline, week 24","[2]; All subjects (N=26) completing 24 weeks, diacerin 50 mg twice daily add-on",−0.63%
same,"HbA1c mean change from baseline, week 24","[2]; Dyslipidemia subgroup (N=16), diacerin 50 mg twice daily, 24 weeks",−0.82%
same,"HbA1c mean change from baseline, week 24","[2]; Hyper LDL-cholesterolemia subgroup (N=11), diacerin 50 mg twice daily, 24 weeks",−0.84%
same,"HbA1c mean change from baseline, week 24","[2]; Hypercholesterolemia subgroup (N=7), diacerin 50 mg twice daily, 24 weeks",−0.76%
same,"HbA1c mean change from baseline, week 24","[2]; Hypertriglyceridemia or hypercholesterolemia subgroup (N=14), diacerin 50 mg twice daily, 24 weeks",−0.89%
same,"HbA1c mean change from baseline, week 24","[2]; Hypertriglyceridemia subgroup (N=11), diacerin 50 mg twice daily, 24 weeks",−0.83%
same,"HbA1c mean change from baseline, week 24","[2]; Normal lipid profiles subgroup (N=10), diacerin 50 mg twice daily, 24 weeks",−0.30%
same,decrease of HbA1c levels compared with the placebo group,"[2]; after 24-week treatment, all subjects, p<0.05",about 0.63%
same,patients whose HbA1c levels decreased by more than or equal to 0.5%,"[2]; diacerin group, 13 of 26 patients, 24 weeks",50%
same,patients whose HbA1c levels decreased by more than or equal to 0.5%,"[2]; dyslipidemia subgroup, 10 of 16 patients, 24 weeks",62.5%
same,decrease of HbA1c levels compared with the baseline,"[2]; dyslipidemia subgroup, after 24-week treatment",about 0.82%
same,patients whose HbA1c levels decreased by more than or equal to 0.5%,"[2]; hypercholesterolemia subgroup, 4 of 7 patients, 24 weeks",57.1%
same,patients whose HbA1c levels decreased by more than or equal to 0.5%,"[2]; hypertriglyceridemia or hypercholesterolemia subgroup, 10 of 14 patients, 24 weeks",71.4%
same,patients whose HbA1c levels decreased by more than or equal to 0.5%,"[2]; hypertriglyceridemia subgroup, 7 of 11 patients, 24 weeks",63.6%
same,patients whose HbA1c levels decreased by more than or equal to 0.5%,"[2]; normal plasma lipid profiles, 4 of 10 patients, 24 weeks",40%
same,decrease of HbA1c levels compared with the baseline,"[2]; type 2 diabetic patients with normal lipid profile, after 24-week treatment",about 0.30%
